From patent US20100119599A1 (ARCHER PHARMACEUTICALS, INC., priority 2006, published 2010) come the findings set out here.

In one assay the test system is Aβ1-40. In words: Measurement of Aβ1-40 in culture medium of 7W WT APP751 CHO cells by ELISA. It is filed as cell-based, Chinese hamster. As to conditions: for activity at 5 µM: Cricetulus griseus, Table 1, 5 μM test compound, CHO cells stably transfected with human APP751, culture medium, ELISA, control DMSO, 0 = no detectable amount; for Aβ1-40 (% of control): CHO cells that overexpress APP751, zero = below the detection limit of the assay. On the technique in general: An ELISA detects its analyte on a solid surface through an enzyme-linked reagent.

The subject of the next assay is Aβ1-42. The assay is described as follows: Measurement of Aβ1-42 in culture medium of 7W WT APP751 CHO cells by ELISA. The class given is cell-based, Chinese hamster. The note with it: for activity at 5 µM: Cricetulus griseus, Table 1, 5 μM test compound, CHO cells stably transfected with human APP751, culture medium, ELISA, control DMSO, 0 = no detectable amount, read-out: Aβ1-42 (% of control); for Aβ1-42 (% of control): CHO cells that overexpress APP751, zero = below the detection limit of the assay.
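Further: 5 µM test compound but RI-coded compounds at 10 µM for 24 hours.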

`COc1ccc(COC(=O)C2=C(C)NC3=C(C(=O)CCC3)C2c2cccc(C)c2)cc1` (stereo not shown) [ST052354, (4-methoxyphenyl)methyl 2-methyl-4-(3-methylphenyl)-5-oxo-1,4,6,7,8-pentahydroquinoline-3-carboxylate]: the results for the activity at 5 µM with Aβ1-40 and in the assay on Aβ1-42 were 95.1% and 57.2%, respectively.

Regarding `COc1ccc(COC(=O)C2=C(C)NC3=C(C(=O)CC(C)(C)C3)C2c2ccc(Cl)c([N+](=O)[O-])c2)cc1` (stereo not shown) [ST052357, (4-methoxyphenyl)methyl 4-(4-chloro-3-nitrophenyl)-2,7,7-trimethyl-5-oxo-1,4,6,7,8-pentahydroquinoline-3-carboxylate], the figures for the activity at 5 µM with Aβ1-40 and with Aβ1-42 were 13.3% and 23.4%, respectively.

As for `COC(=O)C1=C(C)NC2=C(C(=O)CC(C)(C)C2)C1c1ccc(C(F)(F)F)cc1` (stereo not shown) [ST052359, methyl 2,7,7-trimethyl-5-oxo-4-[4-(trifluoromethyl)phenyl]-1,4,6,7,8-pentahydroquinoline-3-carboxylate], the activity at 5 µM in the assay on Aβ1-40 turned out to be 31%; in the assay on Aβ1-42 it was 29.5%.

For `COC(=O)C1=C(C)NC2=C(C(=O)CC(C)(C)C2)C1c1cccc(OCc2ccccc2)c1` (stereo not shown) [ST052360, methyl 2,7,7-trimethyl-5-oxo-4-[3-(phenylmethoxy)phenyl]-1,4,6,7,8-pentahydroquinoline-3-carboxylate], the activity at 5 µM in the assay with Aβ1-40 was determined as 55.7%; with Aβ1-42, 61.6%.

`COC(=O)C1=C(C)NC2=C(C(=O)CCC2)C1c1ccc(Cl)c([N+](=O)[O-])c1` (stereo not shown) [ST052361, methyl 4-(4-chloro-3-nitrophenyl)-2-methyl-5-oxo-1,4,6,7,8-pentahydroquinoline-3-carboxylate]: the activity at 5 µM with Aβ1-40 was 84.1%; in the assay on Aβ1-42, 63.2%.

Turning to `COc1ccc(COC(=O)C2=C(C)NC3=C(C(=O)CCC3)C2c2ccc(C(F)(F)F)cc2)cc1` (stereo not shown) [ST052362, (4-methoxyphenyl)methyl 2-methyl-5-oxo-4-[4-(trifluoromethyl)phenyl]-1,4,6,7,8-pentahydroquinoline-3-carboxylate], the activity at 5 µM with Aβ1-40 was determined as 7.11%; in the assay with Aβ1-42 it was 0%.

As to `CCCOC(=O)C1=C(C)NC2=C(C(=O)CCC2)C1c1cc(Br)ccc1OC` (stereo not shown) [ST052364, propyl 4-(5-bromo-2-methoxyphenyl)-2-methyl-5-oxo-1,4,6,7,8-pentahydroquinoline-3-carboxylate], the activity at 5 µM amounted to 27% in the assay with Aβ1-40 and 13.5% in the assay on Aβ1-42.

In the case of `CC1=C(C(=O)OCC(C)C)C(c2cccc3ccccc23)C2=C(CCCC2=O)N1` (stereo not shown) [ST052365, 2-methylpropyl 2-methyl-4-naphthyl-5-oxo-1,4,6,7,8-pentahydroquinoline-3-carboxylate], the activity at 5 µM worked out at 59.1% in the assay on Aβ1-40 and 72.8% in the assay with Aβ1-42.

In the case of `CCOC(=O)C1=C(C)N(C)C(C)=C(C(=O)OCC)C1c1ccccn1` [ST052366, ethyl 5-(ethoxycarbonyl)-1,2,6-trimethyl-4-(2-pyridyl)-1,4-dihydropyridine-3-carboxylate], in the assay with Aβ1-40, the “Aβ1-40 (% of control)” value is 56.21 % of control. Further, the “Aβ1-42 (% of control)” value in the assay with Aβ1-42 is listed as 89.76 % of control.

On to `COC(=O)C1=C(C)NC2=C(C(=O)CCC2)C1c1cc(F)ccc1F` (stereo not shown) [ST052368, methyl 4-(2,5-difluorophenyl)-2-methyl-5-oxo-1,4,6,7,8-pentahydroquinoline-3-carboxylate], for which the activity at 5 µM was found to be 66.3% with Aβ1-40 and 74.2% in the assay with Aβ1-42.

Consider `CCOCCOC(=O)C1=C(C)NC2=C(C(=O)CCC2)C1c1coc2ccccc2c1=O` (stereo not shown) [ST052370, 2-ethoxyethyl 2-methyl-5-oxo-4-(4-oxochromen-3-yl)-1,4,6,7,8-pentahydroquinoline-3-carboxylate], for which the activity at 5 µM was 68.6% with Aβ1-40 and 69.7% with Aβ1-42.

As for `COc1ccc(COC(=O)C2=C(C)NC3=C(C(=O)CCC3)C2c2cccs2)cc1` (stereo not shown) [ST052371, (4-methoxyphenyl)methyl 2-methyl-5-oxo-4-(2-thienyl)-1,4,6,7,8-pentahydroquinoline-3-carboxylate], the figures for the activity at 5 µM in the assay on Aβ1-40 and in the assay on Aβ1-42 were 59.8% and 92.5%, respectively.

`COc1ccc(OC)c(C2C(C(=O)OCCc3ccccc3)=C(C)NC3=C2C(=O)CCC3)c1` (stereo not shown) [ST052373, 2-phenylethyl 4-(2,5-dimethoxyphenyl)-2-methyl-5-oxo-1,4,6,7,8-pentahydroquinoline-3-carboxylate]: the values for the activity at 5 µM with Aβ1-40 and with Aβ1-42 were 39.4% and 37.4%, respectively.

As to `CCOc1ccccc1C1C(C(=O)OCCOc2ccccc2)=C(C)NC2=C1C(=O)CC(C)(C)C2` (stereo not shown) [ST052381, 2-phenoxyethyl 4-(2-ethoxyphenyl)-2,7,7-trimethyl-5-oxo-1,4,6,7,8-pentahydroquinoline-3-carboxylate], the activity at 5 µM in the assay on Aβ1-40 came out at 45.1%; with Aβ1-42 it was 62%.

Consider `COC(=O)C1=C(C)NC2=C(C(=O)CC(c3cccs3)C2)C1c1cc(OC)ccc1OC` (stereo not shown) [ST052389, methyl 4-(2,5-dimethoxyphenyl)-2-methyl-5-oxo-7-(2-thienyl)-1,4,6,7,8-pentahydroquinoline-3-carboxylate], for which the figures for the activity at 5 µM in the assay on Aβ1-40 and with Aβ1-42 were 78.3% and 44.9%, respectively.

Consider `CC1=C(C(=O)OCCOc2ccccc2)C(c2coc3ccc(C)cc3c2=O)C2=C(CC(C)(C)CC2=O)N1` (stereo not shown) [ST052392, 2-phenoxyethyl 2,7,7-trimethyl-4-(6-methyl-4-oxochromen-3-yl)-5-oxo-1,4,6,7,8-pentahydroquinoline-3-carboxylate], for which the activity at 5 µM with Aβ1-40 was 28.1%; with Aβ1-42, 11.9%.

Regarding `COC(=O)C1=C(C)NC2=C(C(=O)CC(c3cccs3)C2)C1c1cccc(C(F)(F)F)c1` (stereo not shown) [ST052393, methyl 2-methyl-5-oxo-7-(2-thienyl)-4-[3-(trifluoromethyl)phenyl]-1,4,6,7,8-pentahydroquinoline-3-carboxylate], the activity at 5 µM with Aβ1-40 is 34.2%; in the assay on Aβ1-42 it was 48.2%.

With `CC1=C(C(=O)OCCc2ccccc2)C(c2ccc(C)o2)C2=C(CC(C)(C)CC2=O)N1` (stereo not shown) [ST052398, 2-phenylethyl 2,7,7-trimethyl-4-(5-methyl(2-furyl))-5-oxo-1,4,6,7,8-pentahydroquinoline-3-carboxylate], the activity at 5 µM with Aβ1-40 is 44.3%; with Aβ1-42 it was 55.6%.

As for `CC1=C(C(=O)OCc2ccccc2)C(c2ccccc2Br)C2=C(CCCC2=O)N1` (stereo not shown) [ST052408, phenylmethyl 4-(2-bromophenyl)-2-methyl-5-oxo-1,4,6,7,8-pentahydroquinoline-3-carboxylate], the activity at 5 µM with Aβ1-40 is 63%; in the assay with Aβ1-42, 63.4%.

With `COC(=O)C1=C(C)NC2=C(C(=O)CC(c3cccs3)C2)C1c1ccc(Cl)c(Cl)c1` (stereo not shown) [ST052414, methyl 4-(3,4-dichlorophenyl)-2-methyl-5-oxo-7-(2-thienyl)-1,4,6,7,8-pentahydroquinoline-3-carboxylate], the results for the activity at 5 µM with Aβ1-40 and in the assay on Aβ1-42 were 70.2% and 66.9%, respectively.

Take `CCOc1cccc(C2C(C(=O)OC)=CNC=C2C(=O)OC)c1` [ST052415, methyl 4-(3-ethoxyphenyl)-5-(methoxycarbonyl)-1,4-dihydropyridine-3-carboxylate]: the “Aβ1-40 (% of control)” value in the assay on Aβ1-40 is listed as 70.57 % of control. Also, in the assay on Aβ1-42, the “Aβ1-42 (% of control)” value was 72.15 % of control.

On to `COc1ccc(C2C(C(=O)OCCOc3ccccc3)=C(C)NC3=C2C(=O)CC(C)(C)C3)cc1O` (stereo not shown) [ST052422, 2-phenoxyethyl 4-(3-hydroxy-4-methoxyphenyl)-2,7,7-trimethyl-5-oxo-1,4,6,7,8-pentahydroquinoline-3-carboxylate], for which the activity at 5 µM in the assay with Aβ1-40 is 38.3%; with Aβ1-42, 44.8%.

Take `CCCOCCOC(=O)C1=C(C)NC2=C(C(=O)CC(C)(C)C2)C1c1ccc(Br)cc1` (stereo not shown) [ST052437, 2-propoxyethyl 4-(4-bromophenyl)-2,7,7-trimethyl-5-oxo-1,4,6,7,8-pentahydroquinoline-3-carboxylate]: the activity at 5 µM in the assay with Aβ1-40 came out at 5.31%; in the assay on Aβ1-42, 16.5%.

In the case of `CCCOCCOC(=O)C1=C(C)NC2=C(C(=O)CC(C)(C)C2)C1c1ccc(Cl)c(Cl)c1` (stereo not shown) [ST052446, 2-propoxyethyl 4-(3,4-dichlorophenyl)-2,7,7-trimethyl-5-oxo-1,4,6,7,8-pentahydroquinoline-3-carboxylate], the activity at 5 µM with Aβ1-40 amounted to 58.1%; with Aβ1-42 it was 45.2%.

As to `CCOC(=O)C1=CN(c2cc(C)ccc2C)C=C(C(=O)OCC)C1c1cccc(OC)c1OC` [ST052450, ethyl 4-(2,3-dimethoxyphenyl)-1-(2,5-dimethylphenyl)-5-(ethoxycarbonyl)-1,4-dihydropyridine-3-carboxylate], the “Aβ1-40 (% of control)” value in the assay with Aβ1-40 is on record as 5.249 % of control. Also, the “Aβ1-42 (% of control)” value in the assay on Aβ1-42 was 12.04 % of control.

Regarding `CCCOCCOC(=O)C1=C(C)NC2=C(C(=O)CC(C)(C)C2)C1c1ccccc1Cl` (stereo not shown) [ST052454, 2-propoxyethyl 4-(2-chlorophenyl)-2,7,7-trimethyl-5-oxo-1,4,6,7,8-pentahydroquinoline-3-carboxylate], the activity at 5 µM amounted to 25.6% in the assay with Aβ1-40 and 33.2% with Aβ1-42.

For the compound `CCSCCOC(=O)C1=C(C)NC2=C(C(=O)CC(C)(C)C2)C1c1cccc(C)c1` (stereo not shown) [ST052457, 2-ethylthioethyl 2,7,7-trimethyl-4-(3-methylphenyl)-5-oxo-1,4,6,7,8-pentahydroquinoline-3-carboxylate], the activity at 5 µM in the assay on Aβ1-40 was 38.1%; in the assay on Aβ1-42 it was 63.9%.

`COCCOC(=O)C1=C(C)NC2=C(C(=O)CCC2)C1c1cc(OC)c(OC)cc1Br` (stereo not shown) [ST052462, 2-methoxyethyl 4-(2-bromo-4,5-dimethoxyphenyl)-2-methyl-5-oxo-1,4,6,7,8-pentahydroquinoline-3-carboxylate]: the activity at 5 µM turned out to be 61.8% with Aβ1-40 and 94.3% in the assay with Aβ1-42.

Regarding `CC1=C(C(=O)OCc2ccccc2)C(c2coc3ccc(Cl)cc3c2=O)C2=C(CCCC2=O)N1` (stereo not shown) [ST052468, phenylmethyl 4-(6-chloro-4-oxochromen-3-yl)-2-methyl-5-oxo-1,4,6,7,8-pentahydroquinoline-3-carboxylate], the values for the activity at 5 µM in the assay with Aβ1-40 and in the assay on Aβ1-42 were 43.9% and 31.9%, respectively.
